In patent publication US20260234115A1, “LIPID COMPOUNDS, COMPOSITIONS, AND USES THEREOF” (Liberate Bio, Inc., priority 2023, published 2026):
Marks after values point to notes of the source that are not given here.

Tests used:
[1] = system: mouse organs; assay: In vivo activity screening in mice: organ mean total flux (p/s) of luciferase activity after injection of F2 LNP pools (Table 6, FIG. 7A-7C); details: luciferase mRNA
Procedure, shortened: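 C57BL/6J mice given one tail-vein injection of pooled Formulation F2 LNPs carrying firefly luciferase mRNA (0.25-3 mg/kg) in PBS. At 4-6 h, s.c. D-luciferin given; organs imaged ex vivo by IVIS within 10-15 min, after saline cardiac perfusion. Mean total flux (p/s) per organ ROI.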

[2] = system: NHP organs; assay: In vivo activity screening in non-human primates: mean normalized UMI counts of barcoded mRNA in tissues after IV infusion of pooled F2 LNPs (Table 7, FIG. 8-11); set-up: species or system cynomolgus monkeys (Macaca fascicularis)
Protocol: Non-human primate (NIIP) biodistribution studies were performed in cynomolgus monkeys (e.g., Macaca fascicularis), aged 4-6 years. Animals were premedicated with dexamethasone, famotidine and diphenhydramine (at 1, 0.5 and 5 mg/kg, respectively) −2 and −1 day prior to test material dosing. LNP formulations (prepared in Formulation F2 from Example 1) were prepared with ionizable lipids so that each LNP formulation encapsulates one or more mRNAs with predetermined unique barcode sequences as their cargo. LNPs in PBS, identified by their unique barcoded mRNA cargo, are then pooled together at predetermined ratios. To evaluate LNP biodistribution into tissues upon systemic administration, NHPs received the dose administration by single intravenous infusion via peripheral vein (cephalic, saphenous, or another available) for 30 minutes with LNP dosing material (individual or pooled) in PBS at different total dose (0.5-1 mg/kg) levels.
At predetermined time points (4-6 hours after pooled test material administration), animals were sacrificed by exsanguination via the femoral artery after the intravenous injection of ketamine (10 mg/kg) and Euthasol® (0.25 mL/kg). Then, all animals underwent whole-body perfusion with PBS prior to tissue collection. 20-25 mg samples for biodistribution analysis were collected from all treatment group animals and then placed in sample tubes containing RNALater™ solution. All tissue samples were stored at room temperature for 24 hours, then the supernatants were removed, and samples were frozen.
To determine the unique LNPs distributed in the tissues, samples were homogenized by a tissue homogenizer (e.g., TissueLyser). Total RNA from the tissue homogenates were extracted by standard methods. Then, normalized amounts of RNA were sequenced using a targeted RNA sequencing approach with unique molecular identifiers (UMI) to ensure accurate RNA molecule counting. For each tissue, the resulting RNA molecule counts were normalized by pooled test article RNA counts. The results were analyzed using the internal bioinformatics pipeline.
LNPs comprising MC3 used as a control and for cross-mouse comparison. Dose is in mg/kg; LC is Lipid Compound according to Table 1.
Screening results for NHP Group 1 (spleen, femur, and muscle) are shown in FIG. 8A, FIG. 8B, and FIG. 8C.

[3] = Dynamic light scattering: LNP particle size and PDI; assay type: physicochemical; details: for PDI N/P:6 / Size (nm) N/P:6: LNP
Procedure, shortened: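 The LNPs were made by microfluidic mixing of the lipids in ethanol with mRNA in pH 4.0 citrate, then dialyzed into PBS pH 7.4. They were diluted in PBS pH 7.4, and particle size and PDI were measured by dynamic light scattering.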

[4] = Plate-based fluorescence (RiboGreen) assay: nucleic acid cargo content and encapsulation efficiency of LNPs; assay type: physicochemical; details: for EE (%) N/P:6: LNP
Procedure, shortened: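 LNPs made by microfluidic mixing of ethanolic lipids with mRNA in pH 4.0 citrate, dialyzed into PBS pH 7.4. Cargo quantified by RiboGreen fluorescence against a standard curve: Triton-lysed samples give total, TE-only samples give free cargo; encapsulation efficiency from their ratio.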

[5] = LNP compositions for Formulation F2 Study
[6] = LNP compositions for in vivo mouse study, four formulations (F1-F4) pooled, or pools of four compounds

CCCCC/C=C\CCOC(=O)CCCCC(=O)OCC(COC(=O)CCCCC(=O)OCC/C=C\CCCCC)(COC(=O)CCC(CCCCCC)OC(=O)C12CCN(CC1)CC2)COC(=O)CC12CC3CC(CC(C3)C1)C2 (stereo not drawn) [Compound 62, O6-[2-[[2-(1-adamantyl)acetyl]oxymethyl]-2-[[6-[(Z)-non-3-enoxy]-6-oxo-hexanoyl]oxymethyl]-3-[4-(quinuclidine-4-carbonyloxy)decanoyloxy]propyl]O1-[(Z)-non-3-enyl]hexanedioate]
Organ Mean Total Flux Femur ([1]; Mouse 9, dose 0.5 mg/kg): 0.6 p/s (×10^6)
Organ Mean Total Flux Heart ([1]; Mouse 9, dose 0.5 mg/kg): 0.1 p/s (×10^6)
Organ Mean Total Flux Kidney ([1]; Mouse 9, dose 0.5 mg/kg): 0.3 p/s (×10^6)
Organ Mean Total Flux Liver ([1]; Mouse 9, dose 0.5 mg/kg): 38.0 p/s (×10^6)
Organ Mean Total Flux Lung ([1]; Mouse 9, dose 0.5 mg/kg): 2.5 p/s (×10^6)
Organ Mean Total Flux Muscle ([1]; Mouse 9, dose 0.5 mg/kg): 1.4 p/s (×10^6)
Organ Mean Total Flux Pancreas ([1]; Mouse 9, dose 0.5 mg/kg): 0.5 p/s (×10^6)
Organ Mean Total Flux Spleen ([1]; Mouse 9, dose 0.5 mg/kg): 3.3 p/s (×10^6)
Mean normalized UMI counts (×10^4) Bone Marrow ([2]; NHP 2, bone marrow, pooled F2 LNPs, IV infusion, 4-6 hours): 19.0 ×10^4
Mean normalized UMI counts (×10^4) Brain ([2]; NHP 2, brain, pooled F2 LNPs, IV infusion, 4-6 hours): 3.8 ×10^4
Mean normalized UMI counts (×10^4) Heart ([2]; NHP 2, heart, pooled F2 LNPs, IV infusion, 4-6 hours): 87.0 ×10^4
Mean normalized UMI counts (×10^4) Kidney ([2]; NHP 2, kidney, pooled F2 LNPs, IV infusion, 4-6 hours): 21.9 ×10^4
Mean normalized UMI counts (×10^4) Liver ([2]; NHP 2, liver, pooled F2 LNPs, IV infusion, 4-6 hours): 27.4 ×10^4
Mean normalized UMI counts (×10^4) Lung ([2]; NHP 2, lung, pooled F2 LNPs, IV infusion, 4-6 hours): 21.8 ×10^4
Mean normalized UMI counts (×10^4) Muscle ([2]; NHP 2, muscle, pooled F2 LNPs, IV infusion, 4-6 hours): 43.9 ×10^4
Mean normalized UMI counts (×10^4) Pancreas ([2]; NHP 2, pancreas, pooled F2 LNPs, IV infusion, 4-6 hours): 8.1 ×10^4
Mean normalized UMI counts (×10^4) Spleen ([2]; NHP 2, spleen, pooled F2 LNPs, IV infusion, 4-6 hours): 29.8 ×10^4

CCCCC/C=C\CCOC(=O)CCCCC(=O)OCC(COC(=O)CCCCC(=O)OCC/C=C\CCCCC)(COC(=O)CCC(CCCCCC)OC(=O)NCCN1CCCC1)COC(=O)C12CC3CC(CC(C3)C1)C2 (stereo not drawn) [Compound 63, O6-[2-(adamantane-1-carbonyloxymethyl)-2-[[6-[(Z)-non-3-enoxy]-6-oxo-hexanoyl]oxymethyl]-3-[4-(2-pyrrolidin-1-ylethylcarbamoyloxy)decanoyloxy]propyl]O1-[(Z)-non-3-enyl]hexanedioate]
Organ Mean Total Flux Femur ([1]; Mouse 9, dose 0.5 mg/kg): 10.4 p/s (×10^6)
Organ Mean Total Flux Heart ([1]; Mouse 9, dose 0.5 mg/kg): 1.9 p/s (×10^6)
Organ Mean Total Flux Kidney ([1]; Mouse 9, dose 0.5 mg/kg): 2.4 p/s (×10^6)
Organ Mean Total Flux Liver ([1]; Mouse 9, dose 0.5 mg/kg): 351.7 p/s (×10^6)
Organ Mean Total Flux Lung ([1]; Mouse 9, dose 0.5 mg/kg): 37.3 p/s (×10^6)
Organ Mean Total Flux Muscle ([1]; Mouse 9, dose 0.5 mg/kg): 37.4 p/s (×10^6)
Organ Mean Total Flux Pancreas ([1]; Mouse 9, dose 0.5 mg/kg): 15.8 p/s (×10^6)
Organ Mean Total Flux Spleen ([1]; Mouse 9, dose 0.5 mg/kg): 40.7 p/s (×10^6)
Mean normalized UMI counts (×10^4) Bone Marrow ([2]; cynomolgus monkey, in vivo, iv): 233.0 ×10^4
Mean normalized UMI counts (×10^4) Brain ([2]; cynomolgus monkey, in vivo, iv): 72.8 ×10^4
Mean normalized UMI counts (×10^4) Heart ([2]; cynomolgus monkey, in vivo, iv): 115.8 ×10^4
Mean normalized UMI counts (×10^4) Kidney ([2]; cynomolgus monkey, in vivo, iv): 153.6 ×10^4
Mean normalized UMI counts (×10^4) Liver ([2]; cynomolgus monkey, in vivo, iv): 108.2 ×10^4
Mean normalized UMI counts (×10^4) Lung ([2]; cynomolgus monkey, in vivo, iv): 139.5 ×10^4
Mean normalized UMI counts (×10^4) Muscle ([2]; cynomolgus monkey, in vivo, iv): 142.7 ×10^4
Mean normalized UMI counts (×10^4) Pancreas ([2]; cynomolgus monkey, in vivo, iv): 89.4 ×10^4
Mean normalized UMI counts (×10^4) Spleen ([2]; cynomolgus monkey, in vivo, iv): 207.6 ×10^4

CCCCC/C=C\CCOC(=O)CCCCCC(=O)OCC(COC(=O)CCCCCC(=O)OCC/C=C\CCCCC)(COC(=O)CCCCCC(=O)OCC/C=C\CCCCC)COC(=O)CCC(CCCCCC)OC(=O)NCCN1CCCC1 (stereo not drawn) [Compound 7, O7-[2,2-bis[[7-[(Z)-non-3-enoxy]-7-oxo-heptanoyl]oxymethyl]-3-[4-(2-pyrrolidin-1-ylethylcarbamoyloxy)decanoyloxy]propyl]O1-[(Z)-non-3-enyl]heptanedioate]
PDI [3, 5]: 0.086
Particle Size (nm) [3, 5]: 120.8 nm
Particle Size (nm) ([3]; LNP compositions for in vivo mouse study, four formulations (F1-F4) of the lipid compound pooled, or pools of four compounds (sixteen compositions)): 89.3 nm
PDI [3, 6]: 0.14
PDI N/P:6 ([3]; Formulation F1, N/P 6): 0.08
Size (nm) N/P:6 ([3]; Formulation F1, N/P 6): 75 ± 1 nm
PDI N/P:6 ([3]; Formulation F2, N/P 6): 0.11
Size (nm) N/P:6 ([3]; Formulation F2, N/P 6): 97 ± 5 nm
PDI N/P:6 ([3]; Formulation F3, N/P 6): 0.09
Size (nm) N/P:6 ([3]; Formulation F3, N/P 6): 99 ± 2 nm
PDI N/P:6 ([3]; Formulation F4, N/P 6): 0.21
Size (nm) N/P:6 ([3]; Formulation F4, N/P 6): 75 ± 3 nm
EE % [4, 5]: 98%
EE % [4, 6]: 96%
mRNA Content [4, 6]: 84 µg/mL
EE (%) N/P:6 ([4]; Formulation F1, N/P 6): 99%
EE (%) N/P:6 ([4]; Formulation F2, N/P 6): 97%
EE (%) N/P:6 ([4]; Formulation F3, N/P 6): 98%
EE (%) N/P:6 ([4]; Formulation F4, N/P 6): 98%
Organ Mean Total Flux Femur ([1]; Mouse 1, dose 0.3 mg/kg): 2.4 p/s (×10^6)
Organ Mean Total Flux Heart ([1]; Mouse 1, dose 0.3 mg/kg): 0.2 p/s (×10^6)
Organ Mean Total Flux Kidney ([1]; Mouse 1, dose 0.3 mg/kg): 0.7 p/s (×10^6)
Organ Mean Total Flux Liver ([1]; Mouse 1, dose 0.3 mg/kg): 140.0 p/s (×10^6)
Organ Mean Total Flux Lung ([1]; Mouse 1, dose 0.3 mg/kg): 4.9 p/s (×10^6)
Organ Mean Total Flux Muscle ([1]; Mouse 1, dose 0.3 mg/kg): 2.5 p/s (×10^6)
Organ Mean Total Flux Pancreas ([1]; Mouse 1, dose 0.3 mg/kg): 1.8 p/s (×10^6)
Organ Mean Total Flux Spleen ([1]; Mouse 1, dose 0.3 mg/kg): 29.0 p/s (×10^6)
Organ Mean Total Flux Femur ([1]; Mouse 14, dose 0.5 mg/kg): 5.7 p/s (×10^6)
Organ Mean Total Flux Heart ([1]; Mouse 14, dose 0.5 mg/kg): 0.9 p/s (×10^6)
Organ Mean Total Flux Kidney ([1]; Mouse 14, dose 0.5 mg/kg): 3.2 p/s (×10^6)
Organ Mean Total Flux Liver ([1]; Mouse 14, dose 0.5 mg/kg): 338.0 p/s (×10^6)
Organ Mean Total Flux Lung ([1]; Mouse 14, dose 0.5 mg/kg): 14.5 p/s (×10^6)
Organ Mean Total Flux Muscle ([1]; Mouse 14, dose 0.5 mg/kg): 48.2 p/s (×10^6)
Organ Mean Total Flux Pancreas ([1]; Mouse 14, dose 0.5 mg/kg): 1.5 p/s (×10^6)
Organ Mean Total Flux Spleen ([1]; Mouse 14, dose 0.5 mg/kg): 11.8 p/s (×10^6)
